Laboratory results as given in patent publication US20010049368A1, “Method for treating or preventing depression” (priority 2000, published 2001).

Experiments:
human NK-1 receptor = target: T1, human NK-1 receptor (Homo sapiens, UniProt P25103); experiment: NK-1 receptor binding assay in intact CHO cells (125I-Tyr8-substance P); details: CHO cells expressing the human NK-1 receptor
T1 construct: expressed in transfected cells; host or cells: intact CHO (Chinese hamster ovary) cells
Protocol: NK-1 receptor binding assays are performed in intact Chinese hamster ovary (CHO) cells expressing the human NK-1 receptor using a modification of the assay conditions described by Cascieri et al, J. Pharmacol. Exp. Ther., 1992, 42, 458. Typically, the receptor is expressed at a level of 3×10^5 receptors per cell. Cells are grown in monolayer culture, detached from the plate with enzyme-free dissociation solution (Speciality Media Inc.), and washed prior to use in the assay. ^125I-Tyr^8-substance P (0.1 nM, 2000 Ci/mmol; New England Nuclear) is incubated in the presence or absence of test compounds (dissolved in 5 μl dimethylsulphoxide, DMSO) with 5×10^4 CHO cells. Ligand binding is performed in 0.25 ml of 50 mM Tris-HCl, pH7.5, containing 5 mM MnCl2, 150 mM NaCl, 0.02% bovine serum albumin (Sigma), 50 μg/ml chymostatin (Peninsula), 0.1 nM phenylmethylsulphonyl fluoride, 2 μg/ml pepstatin, 2 μg/ml leupeptin and 2.8 μg/ml furoyl saccharine. The incubation proceeds at room temperature until equilibrium is achieved (>40 minutes) and the receptor-ligand complex is harvested by filtration over GF/C filters pre-soaked in 0.1% polyethylenimine using a Tomtek 96-well harvester. Non-specific binding is determined using excess substance P (1 μM) and represents <10% of total binding.

[1] = system: PDE IV inhibitor-induced emesis in the ferret; experiment: Ferret emesis: PDE4 inhibitors and neurokinin-1 receptor antagonists; assay type: in vivo; details: NK-1 antagonist 3 mg kg-1 i.p. or s.c. 30 minutes prior to oral emetic dose of PDE IV inhibitor
Protocol: Intracerebroventricular (i.c.v.) administration was performed following a surgical implantation of an i.c.v. guide cannula. Under isoflurane anaesthesia, a 22 gauge stainless steel guide cannula (total length=20 mm) was lowered 9 mm below the surface of the skull, at the midline, 2 mm anterior to the cross-suture of the posterior edge of the skull. The tip of the guide cannula is then positioned 3-5 mm directly above the area postrema. The guide cannula was fixed to the skull using 2 screws and dental acrylic cement. The animals received antibiotic (Clamoxyl LA, SmithKline Beecham, Surrey, U.K.; 15 mg kg^−1 s.c.) and analgesic injections (Zenecarp, C-Vet Limited, Edmounds, U.K.; 5 mg kg^−1 s.c.) and were housed in individual cages. They were allowed at least 1 week to recover. Intracerebroventricular administration of drugs was performed by inserting an injection unit of 24-25 mm (level of the area postrema) or 27 mm (for brain tissue injection) length into the guide cannula and infusing 2 μl of the drug solution (or vehicle) over 1 minute. The drugs were dissolved in DMSO or sterile water. […]
Anti-emetic agents ondansetron (3 mg kg^−1 i.p.), and neurokinin-1 receptor antagonists (3 mg kg^−1 i.p. or s.c.) were administered 30 minutes prior to an oral challenge with an emetic dose of selected PDE IV inhibitors. […] The emetic response was monitored as described earlier. […]

[2] = system: emesis in ferrets (retches and vomits); experiment: Ferret emesis: PDE4 inhibitors and alpha-2 adrenoreceptor agonists/antagonists; details: for emesis (retching and vomiting) induced by the drug itself: yohimbine by intraperitoneal injection, clonidine 62.5-250 μg kg-1
Protocol: Experiments were conducted using male, adult, fitch or albino ferrets. They were housed in a humidity and temperature controlled environment and fed on carnivore diet (standard cat food) once a day with water ad libitum. On the day of the experiment, the animals were put in individual observation cages and left to habituate for at least 30 minutes.
Drugs were dissolved immediately before use in 100% PEG 300 or sterile water). Oral administration (p.o.) was performed using a 10 cm feeding tube and drugs were administered in a dosing volume of 1 ml kg^−1. Subcutaneous (s.c.) injections were performed at the base of the neck, using sterile water or PEG 300 as the vehicle. The injection volume used was 0.5-1.0 ml kg^−1. For intravenous (i.v.) injections, the left jugular vein was catheterized with a polyethene cannula under halothane anaesthesia. Drugs were dissolved in PEG 300 50% in sterile water and injected in a volume of 1 ml-kg^−1. The vein was then ligated, the incision closed and the animals observed continuously thereafter.
Ferrets were pre-treated with the alpha2-adrenoceptor antagonist, yohimbine.

T1 sequence (P25103 whole entry): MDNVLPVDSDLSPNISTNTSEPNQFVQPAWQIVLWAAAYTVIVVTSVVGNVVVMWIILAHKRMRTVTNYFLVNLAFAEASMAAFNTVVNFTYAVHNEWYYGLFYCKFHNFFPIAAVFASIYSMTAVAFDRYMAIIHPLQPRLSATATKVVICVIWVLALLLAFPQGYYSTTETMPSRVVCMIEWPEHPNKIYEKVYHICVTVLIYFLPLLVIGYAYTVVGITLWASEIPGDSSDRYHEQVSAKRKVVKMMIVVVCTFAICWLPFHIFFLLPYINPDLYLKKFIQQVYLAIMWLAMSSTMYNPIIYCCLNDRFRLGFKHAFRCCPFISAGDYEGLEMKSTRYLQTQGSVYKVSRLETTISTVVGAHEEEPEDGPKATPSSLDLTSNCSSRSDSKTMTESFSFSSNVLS

C[C@@H](O[C@H]1OCCN(Cc2nn[nH]c2CN(C)C)[C@H]1c1ccccc1)c1cc(C(F)(F)F)cc(C(F)(F)F)c1 [2-(R)-(1-(R)-(3,5-bis(trifluoromethyl)phenyl)ethoxy)-4-(5-(N,N-dimethylamino)methyl-1,2,3-triazol-4-yl)methyl-3-(S)-phenylmorpholine]
IC50 (human NK-1 receptor): 0.25 nM

COc1ccccc1CN[C@H]1CCCN[C@H]1c1ccccc1 [CP-99,994]
effect on PDE IV inhibitor-induced emesis [1]: abolished

CS(=O)(=O)NCCN1C(=O)NC[C@]12CCN1CCc3c(oc4ccccc34)[C@@H]1C2 [MK-467]
emesis (retching and vomiting) induced by the drug itself [2]: Emesis was also recorded

CN1CC[C@]2(CCN3CCc4c(oc5ccccc45)[C@@H]3C2)N(C)C1=O [MK-912]
emesis (retching and vomiting) induced by the drug itself [2]: Emesis was also recorded

Clc1cccc(Cl)c1N=C1NCCN1 [clonidine]
number of retches and vomits induced by RS 14203 ([2]; RS 14203 1 mg kg-1 p.o., clonidine 62.5-250 μg kg-1 pre-treatment): dose-dependently decreased
latency of onset of RS 14203-induced emesis ([2]; RS 14203 1 mg kg-1 p.o., clonidine pre-treatment): increased
emesis induced by CT-2450 ([2]; clonidine 250 μg kg-1, CT-2450 30 mg kg-1 p.o., all animals treated): abolished
animals with complete protection against R-rolipram-induced emesis ([2]; clonidine 250 μg kg-1, R-rolipram 3 mg kg-1 p.o.): two out of three
animals with complete protection against RS 14203-induced emesis ([2]; clonidine 250 μg kg-1, RS 14203 1 mg kg-1 p.o.): five out of six

COC(=O)[C@@H]1[C@H]2C[C@H]3c4[nH]c5ccccc5c4CCN3C[C@@H]2CC[C@@H]1O [yohimbine]
emesis (retching and vomiting) induced by the drug itself [2]: induced retching and vomiting in all ferrets treated
